Laboratory results from patent publication US20250011738A1, “HEAT TOLERANT ALKALINE PHOSPHATASE” (BiomEdit, LLC, priority 2021, published 2025).
Read-outs that look alike come from different tables or passages of the source.

Molecular target: T1, Paenibacillus lentus alkaline phosphatase AP1 heat tolerant mutant APHT (designated "HT"), 16 amino acid changes from AP1, SEQ ID NO: 1 (Paenibacillus lentus, UniProt A0A3Q8S6G4, A163G/A247P/A302M/D102S/D304A/F110I/G290A/K198N/K66I/L136H/S105A/S168N/S338G/S535E/T223N/V100I/Y117N)
T1 sequence (A0A3Q8S6G4 34-572 K66I/V100I/D102S/S105A/F110I/Y117N/L136H/A163G/S168N/K198N/T223N/A247P/G290A/A302M/D304A/S338G/S535E): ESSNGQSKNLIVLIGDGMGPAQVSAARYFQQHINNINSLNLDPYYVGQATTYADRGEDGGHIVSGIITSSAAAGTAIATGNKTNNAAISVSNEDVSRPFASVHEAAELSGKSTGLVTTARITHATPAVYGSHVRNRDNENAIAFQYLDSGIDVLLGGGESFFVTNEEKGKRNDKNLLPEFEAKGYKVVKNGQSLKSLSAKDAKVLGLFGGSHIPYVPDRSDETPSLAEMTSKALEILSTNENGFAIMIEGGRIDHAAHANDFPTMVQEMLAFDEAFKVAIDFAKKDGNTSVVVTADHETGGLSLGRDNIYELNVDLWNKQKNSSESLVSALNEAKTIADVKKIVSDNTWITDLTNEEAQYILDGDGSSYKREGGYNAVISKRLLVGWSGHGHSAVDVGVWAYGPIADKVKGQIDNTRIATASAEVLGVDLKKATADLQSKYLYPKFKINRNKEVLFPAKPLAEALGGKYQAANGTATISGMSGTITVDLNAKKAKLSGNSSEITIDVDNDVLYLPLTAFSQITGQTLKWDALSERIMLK
Assay type: biochemical
Description: FIG. 7 presents effect of pH on (A)Vmax (IU/mg) and (B) KM (μM) activity of AP1 (designated “Native”) and APHT (designated “HT”). Assays were performed at 40° C. with p-NPP as substrate in the concentration range 0-5 mM. The enzyme concentration was 2.5 μg/mL for the pH 8 and 0.4 mg/mL for pH 9-13).
FIG. 8 presents effect of pH on (A)Vmax (IU/mg) and (B) KM (μM) activity of AP1 (designated “Native”) and APHT (designated “HT”). Assays were performed at 50° C. with p-NPP as substrate in the concentration range 0-5 mM. The enzyme concentration was 2.5 μg/mL for the pH 8 and 0.4 mg/mL for pH 9-13).
To further improve the thermal stability, a set of synthetic alkaline phosphatase genes where each amino acid was mutated to other possibilities one at a time was constructed and evaluated. […] In FIG. 5A, the AP1 with a serine mutation is designated as “AP Native” and is depicted in sequence with a leader sequence […] (SEQ ID NO:13). The AP1 with leader sequence […] is provided in SEQ ID NO:14). The APHT polypeptide with leader sequence […] is provided in SEQ ID NO:15). In FIG. 5B, the AP1 with a serine mutation and without any leader sequence or leader peptide amino acids (SEQ ID NO:4) is aligned and compared with the APHT without any leader sequence or leader peptide amino acids (SEQ ID NO:1). The 16 amino acid changes in APHT are evident. The APHT amino acid sequence (excluding and without any leader sequence and starting with amino acids ESSN) is 97% identical to the sequence of AP1 (excluding and without any leader sequence and starting with amino acids ESSN).
The APHT sequence (SEQ ID NO: 1) is provided below with the amino acid mutations versus the AP1 sequence underlined and in bold.
• 1 M DEA Buffer pH 10. Dissolve 10.5 g of diethanolamine in to 100 ml of water. The pH adjust with 1 M hydrochloric acid or 1 M NaOH. Filter sterilize and store at 4 C. • 0.5 M Tris Base Buffer pH 10 and 8. Dissolve 6.06 g of Tris in to 100 ml of water. The pH adjust with 1 M hydrochloric acid or 1 M NaOH. Filter sterilize and store at 4 C. • 0.1 M Borate Buffer pH 11 and 12. Dissolve 0.62 g Boric acid, 0.44 g NaCl and Sodium tetraborate 0.95 g in 100 ml H2O. The pH adjust with 1 M hydrochloric acid or 1 M NaOH. Filter sterilize and store at 4 C. • 1 M KCl/NaOH Buffer pH 13. Dissolve 7.4 g KCl in 100 ml water. The pH adjust with 1 M NaOH. Filter sterilize and store at 4 C. • 1 M MgCl2, 23.8 g MgCl2 anhydrous in […] water. Filter sterilize and store at 4 C 3. Activity Assay: p-NPP Substrate
Reactions were carried out at 40° C. using 50 mM Tris buffer pH 7 with 50 mM MgCl2 and at 50° C. using 50 mM DEA buffer pH 10 with 50 mM MgCl2. Enzyme was thawed, aliquoted in 500 μL vials and freeze at −80° C. For 100 μL volume of reaction, components were mixed in 96-well microplate (Fisher 12565501) following the order in TABLE 1. Every reaction condition was done by triplicated at least.
After the adding enzyme, the absorption of product was followed at 405 nm over 5 min in a M5 plate reader with intervals of 20 s. Initial rate was determined for each curve and product formed calculated using the extinction coefficient of 18.5 mM^−1·cm^−1 and a calculated pathlength of 0.5 cm. Initial rates where fitted to Michalis Menten model built in the Kaleidagraph software.
pH effect on enzyme activity was tested at 40 and 50° C. in the corresponding buffer with 50 mM MgCl2 using p-NPP as substrate in the concentration range 0-5.0 mM. The reaction started with the addition of enzyme (2.5 μg/mL for pH 8 and 0.4 μg/mL for pH 9-13) and the absorption at 405 nm was followed for 5 min. Every reaction condition was done by triplicated at least.

SMILES: O=[N+]([O-])c1ccc(OP(=O)(O)O)cc1 [p-NPP, p-nitrophenylphosphate]
- Km (40° C., Borate pH 11): 12200 µM
- Km (40° C., Borate pH 12): 498 µM
- Km (40° C., DEA pH 10): 2540 µM
- Km (40° C., Tris pH 8): 46 µM
- Km (40° C., Tris pH 9): 992 µM
- Km (50° C., Borate pH 11): 12200 µM
- Km (50° C., Borate pH 12): 1080 µM
- Km (50° C., DEA pH 10): 2540 µM
- Km (50° C., KCl/NaOH (pH printed 204; Table 2: 13.0)): 498 µM
- Km (50° C., Tris pH 8): 45 µM
- Km (50° C., Tris pH 9): 992 µM
